| melting point [°C] | Structure (SMILES) |
| --- | --- |
| 170 | CS(=O)(=O)c1ccc(-c2nc(-c3ccccc3)nn2-c2ccc(Cl)cc2)cc1 |
| 103 | Cc1ccc2nc(SCCN(C)C)[nH]c2c1 |
| 243 to 244 | N#Cc1ccc(Nc2nc(Cl)nc(Cc3c(Cl)cccc3Cl)n2)cc1 |
| 50 to 52 | COC(=O)c1cccnc1NC(=O)C(C)CS (stereo not given) |
| 116 to 118 | Cc1c2n(c3ccccc13)C(=O)C(C)(Cc1ncn(C(c3ccccc3)(c3ccccc3)c3ccccc3)c1C)CC2 (stereo not given) |
| 139 to 140 | CCOC(=O)C1=C(C#N)NC(C)=C(C(=O)OCCOCc2ccccc2)C1c1ccccc1[N+](=O)[O-] (stereo not given) |
| 166 to 168 | O=C(O)COc1ccc(C(=O)c2cccc(F)c2)c(Cl)c1Cl |
| 142 to 143 | COc1cc(C)nc(-n2cncn2)n1 |
| 211 to 212 | Oc1cccc(CCc2cc(-c3ccccc3)n(-c3ccccc3)n2)c1 |
| 156 to 158 | CCCN1CC(c2ccc(C)cc2)=C(c2ccc(S(C)(=O)=O)cc2)C1=O |
| 220 to 221 | CNC(=O)c1cc(-c2cnn(C)c2)cc(F)c1Nc1nc(Cl)ncc1Cl |
| > 240 | CCCc1ccc2c(=O)cc(C(=O)O)[nH]c2c1 |
| 40 to 44 | COCCCn1c(Cl)nc2ccc(C)cc21 |
| 233 to 236 | CSc1cnc2c(C)c(C)sc2c1O |
| 63 | CC(=O)c1cnc2onc(C)c2c1Cl |
| 184 to 187 | CCCN(CCC)S(=O)(=O)c1cc(-c2csc(=Nc3cccc(C)c3C)n2C)ccc1Cl |
| 217 to 219 | CN1C(C(=O)Nc2nncs2)=C(O)c2ccc3ccccc3c2S1(=O)=O |
| > 360 | Nc1c(C(F)(F)F)cc(Cl)c2[nH]c(=O)c(=O)[nH]c12 |
| 258 to 260 | CC(=O)N1c2ccccc2Sc2c(O)c(O)c3ccccc3c21 |
| 97 | CN(C)C(=O)[C@@H]1C[C@H](C(=O)OC(C)(C)C)N[C@@H]1c1ccccc1 (racemic) |
| 115 to 117 | CSC(=NC(=O)COC(C)=O)N(C)N=Cc1ccccc1 |
| 111 to 113 | COC(=O)C(C)Oc1ccc(NC(=O)CO)cc1 (stereo not given) |
| 192 to 193 | Cc1cc2c(c3c1NC(=O)C(C)(C)C3)OC(CBr)C2C (stereo not given) |
| 58 to 60 | O=C(C=CC=Cc1ccccc1)c1cccc([N+](=O)[O-])c1 |

| melting point [°C] | Structure (SMILES) |
| --- | --- |
| 186 to 188 | CSCCCC1(C(=S)N[C@@H](Cc2ccc(NC(=O)c3c(Cl)cccc3Cl)cc2)C(=O)O)CCC1 |
| 173 to 175 | CNC(=O)OCCOc1cc(-n2c(=O)cc(C(F)(F)F)n(C)c2=O)c(F)cc1Cl |
| 178 to 180 | COc1cc(C(F)(F)F)sc1CN1C(=O)C2(COc3cc4c(cc32)OCO4)c2ccccc21 (stereo not given) |
| 255 | COC(=O)c1ccc(C(O)(c2ccc3[nH]c(=O)cc(-c4cccc(Cl)c4)c3c2)c2cncn2C)cc1 (stereo not given) |
| 50 | CC1=C(OCC(C)C)CCC(C)(C)C1(O)C[Si](C)(C)C (stereo not given) |
| 129 to 130 | CC(=O)c1ccc(OCCCCNS(=O)(=O)c2ccc(Br)cc2)cc1 |
| 157 to 159 | O=C1c2c(Br)cccc2S(=O)(=O)N1CCl |
| 189 to 190 | CCC(C(N)=O)c1c(C(O)(C(F)(F)F)C(F)(F)F)ccc2ccccc12 (stereo not given) |
| 90 | CCOC(=O)C(C(=O)Nc1nccs1)C(=O)c1cccc(C(F)(F)F)c1NC(=O)C(Cl)Cl (stereo not given) |
| > 310 | CC(C)NC1=NS(=O)(=O)c2cc(C(=O)O)ccc2N1 |
| 190 | CCOC(=S)C(C=P(c1ccccc1)(c1ccccc1)c1ccccc1)C(=O)C(F)(F)F (stereo not given) |
| 76 | CCCCCCCCCC(=O)Nc1ccc(C=C(C#N)C(=O)OCC)cc1 |
| 132 to 133 | CCCN1C(=O)c2ccccc2C1(SCc1ccccc1)c1ccc(Cl)cc1 (stereo not given) |
| 146 to 148 | Cc1cccc(C(=O)Nc2nc(=O)n(C3OC(C)C(O)C3O)cc2F)c1 (stereo not given) |
| 235 to 245 | Cc1cc(NC(=O)c2cnn(-c3ccc(Cl)cc3)c2C)ccc1N1CCC(N2CCOCC2)CC1 |
| 153 to 154 | CCCCCC(=O)c1c[nH]c2ccccc12 |
| 187 to 188 | CNC(=O)C1=CC(CF)(CF)Oc2ccc(Br)cc21 |
| 250 | O=C(Nc1ncc(C(F)(F)F)o1)C1c2ccccc2Oc2cc(F)ccc21 (racemic) |
| 138 to 139 | CCOC(=O)c1c(COC(C)=O)[nH]c(=O)n1C(C)=O |
| 101 to 103 | CCc1c(OC)nc(OC)nc1C(=O)c1cc(C)cc(CO)c1 |
| 164 | CC(C)c1cc(O)nc(-c2ccc(Cl)cc2)n1 |
| 196 | O=C(CC1CCC1)N[C@H]1CC[C@H](CCN2CCC(c3cccc4c3CCO4)CC2)CC1 |
| > 300 | COc1cc2nc3n(c(=O)c2cc1OC)CS(=O)(=O)N3 |
| 117 to 118 | Cc1cc(NC(=O)N(C)c2ccccc2)cc(C)c1S(=O)(=O)C[N+](=O)[O-] |

| melting point [°C] | Structure (SMILES) |
| --- | --- |
| 92 | COc1ccc(C(O)CNCCc2ccc(OC)c(OC)c2)cc1 (stereo not given) |
| 154 to 156 | Cn1cc2c(C3CC3C#N)c(Br)ccc2n1 (stereo not given) |
| 110 | COc1cc(C)cc(OC)c1N(CC1CCCCC1)C(=O)CNC(=O)c1cc2ccccc2n1CCC(=O)O |
| 73.6 to 79.1 | CCOC(=O)C(O[Si](C)(C)C)C(O[Si](C)(C)C)c1cc2c(cc1[N+](=O)[O-])OCO2 (stereo not given) |
| 160 to 162 | CC(C)(C)c1cc(C(=O)Nc2ccc(C(=O)O)cc2)cc(C(C)(C)C)c1O |
| 105 to 110 | CC(C)(C)NS(=O)(=O)c1ccc2c(NS(=O)(=O)N3CCOCC3)cccc2c1O |
| 142 to 143 | COc1ccc2c(c1)C(O)c1cc(CO)ccc1O2 (stereo not given) |
| 178 to 180 | CC(=O)c1nc2c(cc1F)C[C@@H]1CN(C(=O)OC(C)(C)C)C[C@@H](C)N21 |
| 174 to 175 | CCOc1c(C)c(NC(=O)CC(C)(C)C)c(C)c2c1OCC2c1ccc(C(C)C)cc1 (stereo not given) |
| 210 | O=C1Nc2ccccc2N2C1CCC2c1cccc(Cl)c1 (stereo not given) |
| 216 to 219 | COC(=O)c1cn2c(n1)COc1ccc(NC(C)=O)cc1-2 |
| 188 | COc1nc(C)nc(NC(=O)NS(=O)(=O)c2cc([N+](=O)[O-])cs2)n1 |
| 207 to 209 | CCOC(=O)c1nc2sc3c(c2c(=O)[nH]1)CCCC3 |
| 108 to 109 | CCOc1c(C=NOC)c(=O)n(C)c(=O)n1C |
| 125 to 128 | Cc1nc(NCc2ccc(C)o2)c2nc(-c3ccccc3)cc-2[nH]1 |
| 213 to 215 | C/C(=C\c1ccc(NC(=O)c2cc([Si](C)(C)C)cc([Si](C)(C)C)c2)cc1F)C(=O)O |
| 141 to 142 | Cn1cc(Br)c(-c2cccc(NC(=O)Cc3ccc(OC(F)(F)F)cc3)c2)n1 |
| 264 | CS(=O)(=O)c1ccc(-c2cc(C(=O)O)sc2-c2ccc(F)cc2)cc1 |
| 189 to 193 | CC(=O)Oc1cccc2c1CCNC2=O |
| 90 to 94 | COC(=O)CCc1cc2cc(Cl)ccc2n1S(=O)(=O)c1ccc(C(C)C)cc1 |
| 232 to 233 | CSc1ccc(-c2coc3ccc(-c4nnc(N)o4)cc23)cc1Cl |
| 191 to 193 | CO/C(=C\C=C\c1cc2cc(C(F)(F)F)ccc2[nH]1)C(=O)O |
| 90 to 92 | CCOC(=O)Cc1cc(C)c(C(=O)c2ccc(Cl)cc2Cl)n1C |
| 210 to 215 | CCCN=C(N)Nc1ccnc(SCCCC(=N)NC#N)n1 |

| melting point [°C] | Structure (SMILES) |
| --- | --- |
| 176 to 177 | CON(C)C(=O)c1ccc(-c2cc(C(C)(C)C)c(O)c(C(C)(C)C)c2)cc1 |
| 200 | CS(=O)(=O)N(c1cc2c(cc1Oc1ccccc1)C(C#N)CC2)S(C)(=O)=O (stereo not given) |
| 176 to 181 | O=C(O)CC(CC(=O)O)c1cccc2oc3c(c12)CCCC3 |
| 146 to 147 | CCOC(=O)C(CC(=O)c1ccccc1C)(NC(C)=O)C(=O)OCC |
| 80.5 to 82.5 | CC(C)(C)OC(=O)C(C)(C)N1COC(CF)=C(c2ccccc2)C1=O |
| 114 to 115 | CCOc1cccc(CC(=O)O)c1OCCCc1cn(-c2ccc(C(F)(F)F)cn2)nc1OCC |
| 175 to 177 | O=C(O)COc1ccc2c(c1)CCc1sc(S(=O)(=O)CCC(c3ccccc3)c3ccccc3)nc1-2 |
| 141 to 143 | CCCc1c(OCc2cccc(C(=O)OC)c2)ccc(C(C)=O)c1O |
| 130 to 132 | CC(CCC(=O)OC1CCCCC1)C1CC=C2C3=C(CCC21C)C1(C)CCC(O)C(C)(C)C1CC3 (stereo not given) |
| 166 to 168 | O=C(NC1CCCCC1)Oc1ccc(Oc2ccccc2)cc1 |
| 170 | CCOC(=O)C1=C(C)NC(N)=C(C(=O)OCC)C1c1ccccc1OC (stereo not given) |
| 255 to 256 | Oc1cc(O)nc(C(F)(F)F)n1 |
| 284 to 286 | Cn1c(=O)c(-c2ccc(Cl)cc2Cl)cc2c3cc(-c4cc(N)n[nH]4)ccc3n(C)c21 |
| > 250 | O=c1ccc2cnc(Nc3ccccn3)nc2n1C1CCCC1 |
| 141 | O=C1Nc2ccccc2C(c2ccccc2)N1CCO (stereo not given) |
| 210 | N#Cc1c(N)nc2ccccc2c1Cl |
| 170 to 172 | CS(=O)(=O)c1ccc(-n2nc(C(F)(F)F)cc2-c2ccc(C#Cc3ccccc3)cc2)cc1 |
| 85 to 94 | CSC[C@H](C)NC(=O)c1c(I)cccc1C(=O)Nc1ccc(Cc2cc(C(F)(F)F)cc(C(F)(F)F)c2)cc1C |
| 110 to 112 | CC(=O)c1nc2cc(Cl)c(OCC(F)(F)F)cc2cc1OCc1ccccc1 |
| 90 to 91 | C/C(=C\c1ccc(OCCN2CCOCC2)cc1)c1ccc2c(c1)SC(C)(C)S2 |
| 186 to 188 | CCOC(=O)CCCn1cc(C(=O)O)c2nc3c(C)cccc3cc2c1=O |
| 55 to 56 | FC(F)c1ncnc(-c2ccc(Cl)cc2Cl)c1Cl |
| 66 to 67 | CCCCCCCCCCCCOc1ccc(C(C)=O)o1 |

| Structure (SMILES) | melting point [°C] |
| --- | --- |
| O=C1C=C(NC(=O)C(=O)c2cn(Cc3ccc(Cl)cc3)c3cccc(NC(=O)c4ccc(Cl)cc4)c23)CO1 | > 300 |
| COc1cc(Cl)ccc1CCl | 43 to 45 |
| CN1C(=O)C(NC(=O)Nc2cccc(F)c2)N=C(c2ccccc2)c2ccccc21 (stereo not given) | 252 to 254 |
| COC(=O)C1N=C(c2ccccc2)c2cc(Cl)ccc2NC1=O (stereo not given) | 222 |
| N=C(NCc1c[nH]c2ccccc12)C(Cl)(Cl)Cl | 136 to 138 |
